Experimental data: patent US10010560B2, “Small molecule HSP70 inhibitors” (THE TRUSTEES OF THE UNIVERSITY OF PENNSYLVANIA, priority 2014, dated 2018)

Experiments:
ADP-HSP70 D506A = target: T1, ADP-HSP70 D506A (Homo sapiens, UniProt P0DMV8, D506A/E110D); assay: ITC, mutated full-length ADP-HSP70; type: binding; conditions: ADP-HSP70 mutant D506A
T1 construct: The full-length HSP70 and DnaK mutants were constructed by PCR-based site-directed mutagenesis; His6 (N); made in house; host or cells: E. coli BL21 Star (DE3)
T1 sequence (P0DMV8 whole entry E110D/D506A): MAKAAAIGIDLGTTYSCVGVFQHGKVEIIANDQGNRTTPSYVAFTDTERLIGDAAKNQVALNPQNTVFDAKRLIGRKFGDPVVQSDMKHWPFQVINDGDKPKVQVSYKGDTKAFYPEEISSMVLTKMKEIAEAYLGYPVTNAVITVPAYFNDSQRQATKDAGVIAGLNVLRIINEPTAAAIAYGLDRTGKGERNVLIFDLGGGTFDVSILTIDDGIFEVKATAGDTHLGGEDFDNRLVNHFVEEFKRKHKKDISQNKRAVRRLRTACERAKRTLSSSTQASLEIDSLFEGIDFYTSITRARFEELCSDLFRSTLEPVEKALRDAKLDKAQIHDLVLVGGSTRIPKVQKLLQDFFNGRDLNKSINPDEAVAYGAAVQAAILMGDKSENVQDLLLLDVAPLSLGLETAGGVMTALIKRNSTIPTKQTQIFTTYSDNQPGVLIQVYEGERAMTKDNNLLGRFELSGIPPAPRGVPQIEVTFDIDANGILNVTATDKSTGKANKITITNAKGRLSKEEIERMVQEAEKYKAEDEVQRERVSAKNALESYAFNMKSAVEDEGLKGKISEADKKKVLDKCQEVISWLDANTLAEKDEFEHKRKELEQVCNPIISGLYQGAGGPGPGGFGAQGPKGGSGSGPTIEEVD
Source text: (§1) The human stress-inducible HSP70 (residues 1-641 or 386-616 of SEQ ID NO: 2) and E. coli DnaK (residues 1-638, 389-607, or 393-507 of SEQ ID NO: 4) were cloned into the pET25 vector (EMD Millipore Chemicals, Inc., Billerica, Mass., USA) between the NdeI and XhoI restriction sites. The full-length HSP70 and DnaK mutants were constructed by PCR-based site-directed mutagenesis using the QuikChange™ Site-Directed Mutagenesis Kit (Agilent Technologies, Inc., Santa Clara, Calif., USA). All plasmid inserts were verified by DNA sequencing. All HSP70 and DnaK variants were produced with a N-terminal His6-tag in the E. coli BL21 Star (DE3) strain (Invitrogen catalog number C6010-03). The resulting strains were grown at 37° C. in LB medium containing 50 μg/mL of carbenicillin (Sigma-Aldrich Co., St. Louis, Mo., USA). At an OD600 about 0.3 to about 0.5, protein expression was induced with 0.5 mM isopropyl-β-D-thiogalactopyranoside (IPTG), and cells were subsequently grown at 25° C. for about 16 h. Cells were collected by centrifugation and resuspended in the Bugbuster® Master Mix (EMD Millipore Chemicals catalog number 71456-4), supplemented with protease inhibitors, 1 mM diethiothreitol (DTT) and 20 mM imidazole. The His6-tagged fusion proteins were isolated on Ni^2+-chelating resins (Ni-NTA Superflow, Qiagen catalog number 30410) by standard procedures. When necessary, size-exclusion chromatography on a Superdex® 200 or a Superose® 6 10/300 GL columns (GE Healthcare) analytical column pre-equilibrated with 1× Dulbecco's Phosphate Buffered Saline (DPBS—Invitrogen 14190-136), 1 mM Tris-HCl (pH 7.4) or 10 mM Tris-HCl (pH 7) was used as the final purification step. The purified DnaK proteins were dialyzed thoroughly against 1× DPBS with 5 mM DTT at 4° C., for crystallization trials involving the small molecule inhibitor PET-16. For isothermal titration calorimetry studies, all HSP70 and DnaK variants were dialyzed extensively against the buffers as noted below under the section entitled “Isothermal Titration calorimetry Studies”. The dialyzed proteins were subsequently microcentrifugated at 15,000×g for 5 min at 4° C. and aliquots of the soluble proteins were stored at −80° C.
(§2) All ITC experiments were performed using a MicroCal VP-ITC isothermal titration calorimeter (MicroCal). Both full-length HSP70 and DnaK proteins and DnaK (aa 393-507) proteins were prepared in 1 mM Tris-HCl (pH 7.4) buffer containing 3% dimethylsulfoxide (DMSO). The HSP70 (aa 386-616) protein was prepared in buffer containing 3% DMSO and 10 mM Tris-HCl, pH 7. The syringe was loaded with purified protein in either 1 mM Tris-HCl (pH 7.4) buffer containing 3% DMSO or 10 mM Tris-HCl (pH 7) buffer containing 3% DMSO. The sample cell of the calorimeter was loaded with PES, PET-16 or NRLLLTG (SEQ ID NO: 7) prepared in the same buffer. All solutions were degassed for 5 min.
(§3) The titrations involving the full-length purified proteins were performed at 25° C. with injection volumes of 12 μL and a spacing of 300 s. The titrations involving the purified HSP70 (aa 386-616) and DnaK (aa 393-507) were performed at 42° C. with injection volumes of 12 μL and a spacing of 300 s. Heat from the pre-injection was not used during fitting. The data were fit using a one-site binding model available in the Origin® ITC data analysis software (MicroCal Origin® V5.0, MicroCal Software, Northampton, Mass.). Error values obtained from the MicroCal Origin® V5.0 software were averaged and reported.
(§4) The information from crystal structure analysis pointed to particular amino acid residues as potential contact sites for interaction with PET-16. Single point mutants were thereby introduced in the context of a full-length DnaK protein, as well as at the corresponding residues within HSP70; these mutant proteins were analyzed by ITC for ability to bind to PET-16. The DnaK mutations included residues L392D, P396L, L399R, G482D, A503D and […]; those in HSP70 were L394D, P398L, L401R, G484D, N505D and D506A. […]

ADP-HSP70 L401R = target: T2, ADP-HSP70 L401R (Homo sapiens, UniProt P0DMV8, E110D/L401R); assay: ITC, mutated full-length ADP-HSP70; type: binding; conditions: ADP-HSP70 mutant L401R
T2 construct: The full-length HSP70 and DnaK mutants were constructed by PCR-based site-directed mutagenesis; His6 (N); made in house; host or cells: E. coli BL21 Star (DE3)
T2 sequence (P0DMV8 whole entry E110D/L401R): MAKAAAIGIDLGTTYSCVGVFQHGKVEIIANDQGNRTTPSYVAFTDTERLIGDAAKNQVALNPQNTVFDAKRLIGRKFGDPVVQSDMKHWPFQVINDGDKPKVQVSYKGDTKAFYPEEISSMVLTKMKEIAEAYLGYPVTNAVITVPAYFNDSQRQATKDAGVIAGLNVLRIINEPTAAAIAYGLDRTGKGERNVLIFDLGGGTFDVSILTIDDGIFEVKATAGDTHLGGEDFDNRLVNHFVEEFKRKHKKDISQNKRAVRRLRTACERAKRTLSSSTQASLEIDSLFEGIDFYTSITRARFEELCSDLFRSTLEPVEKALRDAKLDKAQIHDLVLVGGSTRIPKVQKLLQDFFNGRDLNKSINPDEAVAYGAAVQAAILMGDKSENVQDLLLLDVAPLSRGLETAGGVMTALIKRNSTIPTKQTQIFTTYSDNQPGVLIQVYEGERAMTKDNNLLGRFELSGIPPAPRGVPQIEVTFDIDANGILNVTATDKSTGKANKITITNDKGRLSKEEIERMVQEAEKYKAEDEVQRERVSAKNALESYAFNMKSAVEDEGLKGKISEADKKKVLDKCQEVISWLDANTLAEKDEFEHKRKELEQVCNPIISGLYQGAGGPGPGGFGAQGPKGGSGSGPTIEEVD
Source text: as §1, §2, §3, §4

ADP-HSP70 G484D = target: T3, ADP-HSP70 G484D (Homo sapiens, UniProt P0DMV8, E110D/G484D); assay: ITC, mutated full-length ADP-HSP70; type: binding; conditions: ADP-HSP70 mutant G484D
T3 construct: The full-length HSP70 and DnaK mutants were constructed by PCR-based site-directed mutagenesis; His6 (N); made in house; host or cells: E. coli BL21 Star (DE3)
T3 sequence (P0DMV8 whole entry E110D/G484D): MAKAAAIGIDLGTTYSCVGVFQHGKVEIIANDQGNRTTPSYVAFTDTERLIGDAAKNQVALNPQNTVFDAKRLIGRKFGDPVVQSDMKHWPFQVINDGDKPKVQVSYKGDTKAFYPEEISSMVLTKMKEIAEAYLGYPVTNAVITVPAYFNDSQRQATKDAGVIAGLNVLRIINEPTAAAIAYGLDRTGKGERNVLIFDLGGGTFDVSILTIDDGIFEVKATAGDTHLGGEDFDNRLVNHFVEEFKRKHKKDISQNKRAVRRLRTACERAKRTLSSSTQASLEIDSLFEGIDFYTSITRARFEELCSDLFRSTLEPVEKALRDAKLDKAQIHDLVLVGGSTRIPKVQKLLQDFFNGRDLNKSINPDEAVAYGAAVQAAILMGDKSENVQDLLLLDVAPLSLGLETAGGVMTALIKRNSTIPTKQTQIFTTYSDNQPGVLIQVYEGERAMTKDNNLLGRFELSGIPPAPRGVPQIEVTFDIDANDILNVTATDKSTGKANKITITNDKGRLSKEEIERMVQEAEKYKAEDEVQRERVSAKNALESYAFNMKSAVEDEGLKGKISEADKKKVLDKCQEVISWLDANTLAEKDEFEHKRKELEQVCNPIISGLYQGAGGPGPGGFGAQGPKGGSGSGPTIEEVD
Source text: as §1, §2, §3, §4

[1] = system: melanoma tumor cell line WM989; assay: Combination with BRAF inhibitor Vemurafenib, viability; type: cell-based, human
Source text: FIG. 6 is a line graph illustrating that PET-16 synergizes with the BRAF inhibitor Vemurafenib to reduce the viability of the melanoma tumor cell line WM989 (▪). WM989 cells treated singularly with Vemurafenib are depicted by (●). No synergy was detected between Vemurafenib and PES-Cl.

In the case of C(#C[P+](c1ccccc1)(c1ccccc1)c1ccccc1)c1ccccc1.[Br-] [PET-16, triphenyl(phenylethynyl)phosphonium bromide], the Kd (ADP-HSP70 D506A) is reported as 112 ± 3.8 µM, the Kd (ADP-HSP70 L401R) is reported as 43.2 ± 9.9 µM and the Kd (ADP-HSP70 G484D) is reported as 98.8 ± 5.1 µM. The “synergy with PLX4032 (Vemurafenib)” value [1] was “able to synergize”.
